Test results from ChEMBL document CHEMBL4219047, “Optimization of peptide-based polyagonists for treatment of diabetes and obesity” (Bioorg Med Chem, 2018).
Where a SMILES comes first, the peptide text is derived from it.

Key:
Format in all cases: functional, cell-based
[1] = molecular target: T1, Glucagon receptor (Homo sapiens, UniProt P47871); assay: Agonist activity at human GCG receptor expressed in HEK293 cells assessed as increase in cAMP level after 5 hrs by CRE driven luciferase reporter gene assay
[2] = molecular target: T1, Glucagon receptor; assay: Agonist activity at human GCG receptor expressed in HEK293 cells assessed as increase in cAMP level after 5 hrs by CRE driven luciferase reporter gene assay relative to glucagon
[3] = molecular target: T2, Gastric inhibitory polypeptide receptor (Homo sapiens) (UniProt P48546); assay: Agonist activity at human GIP receptor expressed in HEK293 cells assessed as increase in cAMP level after 5 hrs by CRE driven luciferase reporter gene assay relative to GIP; parameters: concentration or dose not given beside the values
T2 sequence (whole entry): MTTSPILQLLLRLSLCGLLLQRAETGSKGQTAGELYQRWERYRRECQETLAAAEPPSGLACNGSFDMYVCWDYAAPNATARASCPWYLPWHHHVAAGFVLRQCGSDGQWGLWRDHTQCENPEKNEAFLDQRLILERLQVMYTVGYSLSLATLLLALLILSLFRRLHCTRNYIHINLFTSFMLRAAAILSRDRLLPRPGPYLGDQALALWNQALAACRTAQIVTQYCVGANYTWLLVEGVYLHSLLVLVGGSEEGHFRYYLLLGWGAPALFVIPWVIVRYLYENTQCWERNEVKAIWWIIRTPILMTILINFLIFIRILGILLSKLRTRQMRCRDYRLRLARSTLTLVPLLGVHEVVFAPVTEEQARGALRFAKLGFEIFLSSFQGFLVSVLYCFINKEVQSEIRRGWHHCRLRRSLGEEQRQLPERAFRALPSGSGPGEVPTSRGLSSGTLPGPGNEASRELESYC

[4] = molecular target: T3, Glucagon-like peptide 1 receptor (Homo sapiens, UniProt P43220); assay: Agonist activity at human GLP1 receptor expressed in HEK293 cells assessed as increase in cAMP level after 5 hrs by CRE driven luciferase reporter gene assay relative to GLP1; parameters: concentration or dose not given beside the values
[5] = molecular target: T3, Glucagon-like peptide 1 receptor; assay: Agonist activity at human GLP1 receptor expressed in HEK293 cells assessed as increase in cAMP level after 5 hrs by CRE driven luciferase reporter gene assay
[6] = molecular target: T4, Gastric inhibitory polypeptide receptor (Homo sapiens, UniProt P48546); assay: Agonist activity at human GIP receptor expressed in HEK293 cells assessed as increase in cAMP level after 5 hrs by CRE driven luciferase reporter gene assay
T4 sequence (P48546 whole entry): T2 sequence (whole entry)

T3 sequence (P43220 whole entry): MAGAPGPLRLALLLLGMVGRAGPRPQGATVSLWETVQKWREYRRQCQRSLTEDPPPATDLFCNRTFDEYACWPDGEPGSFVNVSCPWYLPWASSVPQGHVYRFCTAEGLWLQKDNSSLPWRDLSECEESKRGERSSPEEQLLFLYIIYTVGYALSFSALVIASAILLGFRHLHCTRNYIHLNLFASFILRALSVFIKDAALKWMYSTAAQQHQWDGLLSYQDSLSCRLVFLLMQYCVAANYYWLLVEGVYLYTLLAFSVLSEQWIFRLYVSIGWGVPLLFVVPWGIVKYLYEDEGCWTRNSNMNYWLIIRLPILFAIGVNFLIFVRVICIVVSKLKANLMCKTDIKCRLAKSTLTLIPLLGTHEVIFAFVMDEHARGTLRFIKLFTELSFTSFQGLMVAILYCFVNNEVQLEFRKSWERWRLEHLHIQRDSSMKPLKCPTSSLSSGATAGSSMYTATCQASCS
T1 sequence (P47871 whole entry): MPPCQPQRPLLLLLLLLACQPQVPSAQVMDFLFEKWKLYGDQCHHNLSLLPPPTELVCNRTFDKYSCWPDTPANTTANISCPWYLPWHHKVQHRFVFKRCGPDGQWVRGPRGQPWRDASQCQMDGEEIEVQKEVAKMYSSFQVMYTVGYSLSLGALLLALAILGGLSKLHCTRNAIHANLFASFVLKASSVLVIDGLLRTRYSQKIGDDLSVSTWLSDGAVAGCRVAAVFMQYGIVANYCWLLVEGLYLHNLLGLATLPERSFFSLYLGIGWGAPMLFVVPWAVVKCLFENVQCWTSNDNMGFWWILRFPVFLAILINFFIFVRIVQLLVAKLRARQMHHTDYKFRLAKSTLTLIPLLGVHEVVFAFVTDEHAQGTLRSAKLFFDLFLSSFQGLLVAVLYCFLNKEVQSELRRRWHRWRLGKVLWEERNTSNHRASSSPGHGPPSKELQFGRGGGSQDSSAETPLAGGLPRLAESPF

Compound | EC50 [1] [nM] | Activity [2] [%] | Activity [3] [%] | Activity [4] [%] | EC50 [5] [nM] | EC50 [6] [nM]
CC[C@H](C)[C@H](NC(=O)[C@H](Cc1ccccc1)NC(=O)[C@H](CCC(=O)O)NC(=O)[C@@H]1CCCCNC(=O)CC[C@H](NC(=O)[C@H](CC(=O)O)NC(=O)[C@H](CC(C)C)NC(=O)[C@H](Cc2ccc(O)cc2)NC(=O)[C@H](CCCCN)NC(=O)[C@H](CO)NC(=O)[C@H](Cc2ccc(O)cc2)NC(=O)[C@H](CC(=O)O)NC(=O)[C@H](CO)NC(=O)[C@@H](NC(=O)[C@H](Cc2ccccc2)NC(=O)[C@@H](NC(=O)CNC(=O)[C@H](CCC(N)=O)NC(=O)[C@H](CO)NC(=O)[C@@H](N)Cc2cnc[nH]2)[C@@H](C)O)[C@@H](C)O)C(=O)N[C@@H]([C@@H](C)CC)C(=O)N[C@@H](Cc2cnc[nH]2)C(=O)N[C@@H](CCC(N)=O)C(=O)N1)C(=O)N[C@@H](C)C(=O)N[C@@H](Cc1c[nH]c2ccccc12)C(=O)N[C@@H](CC(C)C)C(=O)N[C@@H](CCSC)C(=O)N[C@@H](CC(N)=O)C(=O)N[C@H](C(N)=O)[C@@H](C)O | 0.15 | 21 | 0 | 20 | 0.14 | 5.53
CCCCCCCCCCCCCCCC(=O)N[C@@H](CCC(=O)NCCCC[C@H](NC(=O)[C@H](CC(=O)O)NC(=O)[C@H](CO)NC(=O)[C@@H](NC(=O)[C@H](Cc1ccccc1)NC(=O)[C@@H](NC(=O)CNC(=O)[C@H](CCC(N)=O)NC(=O)C(C)(C)NC(=O)[C@@H](N)Cc1cnc[nH]1)[C@@H](C)O)[C@@H](C)O)C(=O)N[C@@H](CO)C(=O)N[C@@H](CCCCN)C(=O)N[C@@H](Cc1ccc(O)cc1)C(=O)N[C@@H](CC(C)C)C(=O)N[C@@H](CC(=O)O)C(=O)N[C@@H](CCC(=O)O)C(=O)N[C@@H](CCCNC(=N)N)C(=O)N[C@@H](C)C(=O)N[C@@H](C)C(=O)N[C@@H](CCC(N)=O)C(=O)N[C@@H](CC(=O)O)C(=O)N[C@@H](Cc1ccccc1)C(=O)N[C@H](C(=O)N[C@@H](CCC(N)=O)C(=O)N[C@@H](Cc1c[nH]c2ccccc12)C(=O)N[C@@H](CC(C)C)C(=O)N[C@@H](CC(C)C)C(=O)N[C@@H](CC(=O)O)C(=O)NCC(=O)N[C@@H](CCCNC(=N)N)C(=O)NCC(N)=O)C(C)C)C(=O)O |  | 457 | 15 | 700 | 0.004 | 0.133
CCCCCCCCCCCCCCCC(=O)N[C@@H](CCC(=O)NCCCC[C@H](NC(=O)[C@H](CC(=O)O)NC(=O)[C@H](CO)NC(=O)[C@@H](NC(=O)[C@H](Cc1ccccc1)NC(=O)[C@@H](NC(=O)CNC(=O)[C@H](CCC(N)=O)NC(=O)[C@@H](CO)NC(=O)[C@@H](N)Cc1cnc[nH]1)[C@@H](C)O)[C@@H](C)O)C(=O)N[C@@H](CO)C(=O)N[C@@H](CCCCN)C(=O)N[C@@H](Cc1ccc(O)cc1)C(=O)N[C@@H](CC(C)C)C(=O)N[C@@H](CC(=O)O)C(=O)N[C@@H](CCC(=O)O)C(=O)N[C@@H](CCCNC(=N)N)C(=O)N[C@@H](C)C(=O)N[C@@H](C)C(=O)N[C@@H](CCC(N)=O)C(=O)N[C@@H](CC(=O)O)C(=O)N[C@@H](Cc1ccccc1)C(=O)N[C@H](C(=O)N[C@@H](CCC(N)=O)C(=O)N[C@@H](Cc1c[nH]c2ccccc12)C(=O)N[C@@H](CC(C)C)C(=O)N[C@@H](CC(C)C)C(=O)N[C@@H](CC(=O)O)C(=O)NCC(=O)N[C@@H](CCCNC(=N)N)C(=O)NCC(N)=O)C(C)C)C(=O)O |  | 800 | 2 | 1400 |  | 

More lines, now with the values ahead:

EC50 [1] [nM] | Activity [2] [%] | Activity [3] [%] | Activity [4] [%] | EC50 [5] [nM] | EC50 [6] [nM] | Compound
5.22 | 1 | 2 | 93 | 0.03 | 0.867 | CC[C@H](C)[C@H](NC(=O)[C@H](Cc1ccccc1)NC(=O)[C@H](CCC(=O)O)NC(=O)[C@H](CCCCN)NC(=O)[C@H](C)NC(=O)[C@H](C)NC(=O)[C@H](CCC(N)=O)NC(=O)[C@H](CCC(=O)O)NC(=O)[C@H](CC(=O)O)NC(=O)[C@H](CC(C)C)NC(=O)[C@H](Cc1ccc(O)cc1)NC(=O)[C@H](CCCCN)NC(=O)[C@H](CO)NC(=O)[C@H](Cc1ccc(O)cc1)NC(=O)[C@H](CC(=O)O)NC(=O)[C@H](CO)NC(=O)[C@@H](NC(=O)[C@H](Cc1ccccc1)NC(=O)[C@@H](NC(=O)CNC(=O)[C@H](CCC(=O)O)NC(=O)[C@H](CO)NC(=O)[C@@H](N)Cc1cnc[nH]1)[C@@H](C)O)[C@@H](C)O)C(=O)N[C@@H](C)C(=O)N[C@@H](Cc1c[nH]c2ccccc12)C(=O)N[C@@H](CC(C)C)C(=O)N[C@@H](CCSC)C(=O)N[C@@H](CC(N)=O)C(=O)N[C@H](C(N)=O)[C@@H](C)O (H-HSEGTFTSDYSKYLDEQAAKEFIAWLMNT-NH2)
0.005 | 640 | 1 | 41 | 0.068 | 2.03 | CCCCCCCCCCCCCCCC(=O)N[C@@H](CCC(=O)NCCCC[C@H](NC(=O)[C@H](CC(=O)O)NC(=O)[C@H](CO)NC(=O)[C@@H](NC(=O)[C@H](Cc1ccccc1)NC(=O)[C@@H](NC(=O)CNC(=O)[C@H](CCC(N)=O)NC(=O)C(C)(C)NC(=O)[C@@H](N)Cc1cnc[nH]1)[C@@H](C)O)[C@@H](C)O)C(=O)N[C@@H](CO)C(=O)N[C@@H](CCCCN)C(=O)N[C@@H](Cc1ccc(O)cc1)C(=O)N[C@@H](CC(C)C)C(=O)N[C@@H](CC(=O)O)C(=O)N[C@@H](CCC(=O)O)C(=O)N[C@@H](CCCNC(=N)N)C(=O)N[C@@H](C)C(=O)N[C@@H](C)C(=O)N[C@@H](CCC(N)=O)C(=O)N[C@@H](CC(=O)O)C(=O)N[C@@H](Cc1ccccc1)C(=O)N[C@H](C(=O)N[C@@H](CCC(N)=O)C(=O)N[C@@H](Cc1c[nH]c2ccccc12)C(=O)N[C@@H](CC(C)C)C(=O)N[C@@H](CC(C)C)C(=O)N[C@@H](CC(=O)O)C(=O)N[C@H](C(N)=O)[C@@H](C)O)C(C)C)C(=O)O
0.009 | 356 | 1 | 70 | 0.04 |  | CCCCCCCCCCCCCCCC(=O)N[C@@H](CCC(=O)NCCCC[C@H](NC(=O)[C@H](CC(=O)O)NC(=O)[C@H](CO)NC(=O)[C@@H](NC(=O)[C@H](Cc1ccccc1)NC(=O)[C@@H](NC(=O)CNC(=O)[C@H](CCC(N)=O)NC(=O)[C@@H](C)NC(=O)[C@@H](N)Cc1cnc[nH]1)[C@@H](C)O)[C@@H](C)O)C(=O)N[C@@H](CO)C(=O)N[C@@H](CCCCN)C(=O)N[C@@H](Cc1ccc(O)cc1)C(=O)N[C@@H](CC(C)C)C(=O)N[C@@H](CC(=O)O)C(=O)N[C@@H](CCC(=O)O)C(=O)N[C@@H](CCCNC(=N)N)C(=O)N[C@@H](C)C(=O)N[C@@H](C)C(=O)N[C@@H](CCC(N)=O)C(=O)N[C@@H](CC(=O)O)C(=O)N[C@@H](Cc1ccccc1)C(=O)N[C@H](C(=O)N[C@@H](CCC(N)=O)C(=O)N[C@@H](Cc1c[nH]c2ccccc12)C(=O)N[C@@H](CC(C)C)C(=O)N[C@@H](CC(C)C)C(=O)N[C@@H](CC(=O)O)C(=O)N[C@H](C(N)=O)[C@@H](C)O)C(C)C)C(=O)O
